This assay concerns the target T1, Broad substrate specificity ATP-binding cassette transporter ABCG2 (Homo sapiens, UniProt Q9UNQ0).
T1 sequence (Q9UNQ0 whole entry): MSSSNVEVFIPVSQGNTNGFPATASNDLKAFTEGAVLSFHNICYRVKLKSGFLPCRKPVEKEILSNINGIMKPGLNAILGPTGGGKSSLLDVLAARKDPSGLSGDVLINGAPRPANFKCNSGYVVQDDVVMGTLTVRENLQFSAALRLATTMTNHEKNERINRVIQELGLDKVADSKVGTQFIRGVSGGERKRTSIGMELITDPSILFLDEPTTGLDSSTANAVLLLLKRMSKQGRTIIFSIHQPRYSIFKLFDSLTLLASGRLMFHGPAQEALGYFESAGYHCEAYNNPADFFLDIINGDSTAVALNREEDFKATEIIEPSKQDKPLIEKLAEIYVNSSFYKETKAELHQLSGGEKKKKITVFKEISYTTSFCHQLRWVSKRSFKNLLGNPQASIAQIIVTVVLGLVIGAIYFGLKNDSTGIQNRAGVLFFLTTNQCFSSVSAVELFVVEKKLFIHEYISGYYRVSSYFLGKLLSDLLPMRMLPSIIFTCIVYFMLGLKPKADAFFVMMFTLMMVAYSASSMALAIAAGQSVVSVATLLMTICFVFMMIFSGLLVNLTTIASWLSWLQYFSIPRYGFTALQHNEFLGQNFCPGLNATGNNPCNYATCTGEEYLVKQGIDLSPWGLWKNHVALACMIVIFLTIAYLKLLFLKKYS
The assay can be described thus: Inhibition of ABCG2 expressed in human NCI-H460 cells assessed as increase in PhA accumulation after 2 to 20 hrs relative to fumitremorgin C.
As usually defined, the IC50 is the point on the concentration scale where inhibition reaches its midpoint. As for `COc1cc(O)c(CC=C(C)C)c(-c2oc3cc(O)cc(O)c3c(=O)c2OC)c1`, the IC50 is 8.4 µM. Under `COc1cc(O)c2c(=O)c(OC)c(-c3ccc(O)c(OC)c3)oc2c1` [PACHYPODOL] stands 17.2 µM. Under `CC(C)=CCC/C(C)=C/Cc1c(O)cc(O)c2c1O[C@H](c1cc(O)cc(O)c1)CC2=O` stands 15.5 µM; under `CC(C)=CCC/C(C)=C/Cc1c(O)cc2oc(-c3ccc(O)cc3)c(O)c(=O)c2c1O` [MACARANGIN], 5.7 µM; under `COc1ccc([C@@H]2CC(=O)c3c(O)cc(O)c(CC=C(C)C)c3O2)cc1O`, 6.6 µM. As to `COc1cc(O)c2c(=O)c(OC)c(-c3ccc(OC)c(O)c3)oc2c1` [AYANIN], the IC50 turned out to be 5.7 µM. With `CC(C)=CCC/C(C)=C/Cc1c(O)cc(O)c2c1O[C@H](c1ccc(O)cc1)CC2=O` [SOPHORAFLAVANONE A], the IC50 was found to be 12.3 µM. Under `COc1ccc2c3c([nH]c2c1)[C@H](C=C(C)C)N1C(=O)[C@@H]2CCCN2C(=O)[C@@H]1C3` [FUMITREMORGIN] stands 0.8 µM. In the case of `O=c1cc(-c2ccc(O)c(O)c2)oc2cc(O)cc(O)c12` [LUTEOLIN] it was 8.9 µM; in that of `COc1ccc([C@@H]2CC(=O)c3c(O)cc(O)c(CC=C(C)C)c3O2)cc1`, 22.6 µM.

As to `CC(C)=CCc1c(O)c(CC=C(C)C)c2c(c1O)C(=O)C[C@@H](c1cc(O)cc(O)c1)O2`, the IC50 stood at 4.1 µM. Under `C/C(=C/Cc1c(-c2cc(O)c(O)cc2O)oc2c3c(cc(O)c2c1=O)OC(C)(C)C=C3)CO` stands 6.5 µM. In the case of `CC(C)=CCc1c(O)cc(O)c2c1O[C@H](c1ccc(O)cc1)CC2=O` it was 3.1 µM.

Values taken from ChEMBL document CHEMBL1687875, “Flavonoids from eight tropical plant species that inhibit the multidrug resistance transporter ABCG2” (J Nat Prod, 2011).
